Key:
[1] = system: Src/AMPK signaling in MG-63 cells; assay: Immunoblot of Src/AMPK/mTOR signaling; type: cell-based, human; settings: then cisplatin 20 μM 24 hr; for LC3-II expression: inhibitor
Description: FIG. 4. GFRα1 regulates autophagy by Src/AMPK signaling in osteosarcoma cells. (a-b) Immunoblot analysis of osteosarcoma cell lysates with antibodies specific for GFRα1, p-Src, Src, p-AMPK, AMPK, p-mTOR, mTOR, p-p70 S6Kinase, Beclin 1, HMGB1, LC3, and β-actin. (a) MG-63 and cells were treated with cisplatin (20 μM) for 24 hr. (b) Control and GFRα1-deficient MG-63 cells were treated with cisplatin (20 μM) for 24 hr. (c-e) Immunoblot analysis of osteosarcoma cell lysates with antibodies specific for GFRα1, p-Src, Src, p-AMPK, AMPK, LC3, and β-actin. (c) Control and Src-deficient MG-63 cells were treated with cisplatin (20 μM) for 24 hr. (d) MG-63 cells were cultured in the presence or absence of PP1 (5 μM) and then treated with cisplatin (20 μM) for 24 hr. (e) MG-63 cells were cultured in the presence or absence of Compound C and then treated with cisplatin (20 μM) for 24 hr. (f) Cell viability of MG-63 cells after cisplatin treatment in the presence of PP1. MG-63 cells were cultured with DMSO or PP1 (2, 5 μM) and then treated with cisplatin (20 μM) for 24 hr. Cell viability was measured using the WST-1 assay. The values are represented as a mean±s.d.m. (n=3). ** denotes p<0.05 by t-test. (g) Cell viability of MG-63 cells after cisplatin treatment in the presence of Compound C. MG-63 cells were cultured with DMSO or Compound C (5, 10 μM) and then treated with cisplatin (20 μM) for 24 hr. Cell viability was measured using the WST-1 assay. The values are represented as a mean±s.d.m. (n=3). ** denotes p<0.05 by t-test.
(§1) Immunoblotting. Cells were washed with PBS and lysed in RIPA Buffer (Pierce, Rockford, Ill.). The protein content was determined using a dye-binding microassay (Bio-Rad, Hercules, Calif.), and 10-50 μg protein per lane was electrophoresed on 4-12% SDS polyacrylamide gels. Proteins were blotted onto Hybond ECL membranes (Amersham Pharmacia Biotech, Piscataway, N.J.). Two protein ladders were used for molecular weight determination (GenDEPOT, Barker, Tex.). The blotted proteins were detected using an enhanced chemiluminescence detection system (iNtRON, Seoul, Korea). Data were quantified and analyzed with Image-J software.

[2] = system: GFRα1-overexpressing MG-63 clone #4; assay: Colony-forming assay in the presence of cisplatin; type: cell-based, human; settings: cisplatin 20 μM 10 days; 3-MA (10 μM), Baf (100 nM), CQ (30 μg/ml)
Source text: FIG. 3. […] Scale bar, 20 μm. […] Scale bar, 20 μm. […] Scale bar, 20 μm.

MG-63/GFRα1 tumors = assay: MG-63/GFRα1 xenograft in BALB/c nude mice; type: in vivo; settings: CQ 60 mg/kg, cisplatin 3 mg/kg, once a week
Description: FIG. 5. GFRα1-mediated autophagy promotes chemoresistance and tumor growth in vivo. (a) BALB/c nude mice (n =40) were injected with MG-63 cells that were transfected with either control or GFRα1 expressing vector. Tumor volume was measured every 3 or 4 days. Data are shown as mean±SEM. ** p<0.05. (b) BALB/c nude mice (n=20) were injected with MG-63 cells that were transfected with either control or GFRα1 shRNA. Tumor volume was measured every 3 or 4 days. Data are shown as mean±SEM. ** p<0.05. (c) Tumors that were generated from mice injected with MG-63 cells containing GFRα1 expressing vector were directly injected with PBS, CQ, cisplatin, or cisplatin+CQ. Tumor volume was measured every 4 days. Data are shown as mean±SEM. ** p<0.05 vs PBS, CQ, or cisplatin-treated tumors. (d) Left, representative images of immunofluorescence staining of HMGB1 in a section from tumors generated from mice injected with MG-63 cells containing GFRα1 expressing vector and then treated with PBS, CQ, cisplatin, or cisplatin+CQ. Right, quantitative analysis of percentage of cytoplasmic HMGB1-positive cells in HMGB1-positive tumors. The values are represented as a mean±s.d.m. (n=3). ** denotes p<0.05 by t-test. (e) Left, representative images of TUNEL-positive cells in a section from tumors generated from mice injected with MG-63 cells containing GFRα1 expressing vector and then treated with PBS, CQ, cisplatin, or cisplatin+CQ. Right, quantitative analysis of percentage of TUNEL-positive cells in HMGB1-positive tumors. The values are represented as a mean±s.d.m. (n=3). ** denotes p<0.05 by t-test. (0 Survival rate of mice injected with MG-63 cells containing GFRα1 expressing vector and then treated with either cisplatin or cisplatin+CQ. (g) Representative images of immunohistochemical staining of GFRα1 in a section from human osteosarcoma patient before and after cisplatin treatment. (h) Representative images of immunofluorescence staining of GFRα1 and HMGB1 in a section from human osteosarcoma patient before and after cisplatin treatment.
Tumor formation in nude mice. The mice used in this study were 6-week-old female BALB/c nude mice purchased from Orient Bio Inc. (Seongnam, Korea). […] The tumor size was measured with a caliper every 3 or 4 days. […] The tumor size was measured with a caliper every 4 days. […] were calculated from caliper measurements of tumor dimensions in mm using the formula for a prolate ellipsoid: (L×W^2)/2 where L is the longer of the two-measurements.
Statistical analysis. Survival data was analyzed by the Kaplan-Meier and log-rank test with GraphPad Prism v5.04 (GraphPad Software, La Jolla Calif.). Plating efficiency (PE, %)=(Number of colonies counted/Number of cells plated)×100. […] All values are expressed as the mean±standard deviation (SD). […]

[3] = system: GFRα1 expression in MG-63 and U-2 OS cells; assay: Immunoblot of GFRα1 expression after chemotherapeutic agents; type: cell-based, human; settings: doxorubicin 5 μM, cisplatin 20 μM, methotrexate 1 mM, 24 hr
Description: FIG. 1. Cisplatin induces GFRα1 expression in osteosarcoma cells. (a-c) Immunoblot analysis of osteosarcoma cell lysates with antibodies specific for GFRα1 and β-actin. (a) MG-63 and U-2 OS cells were treated with doxorubicin (5 μM), cisplatin (20 μM), or methotrexate (1 mM) for 24 hr. Immunoblot analysis of GFRα1 (left) and quantification of GFRα1 expression (right) after treatment of chemotherapeutic agents. (b) MG-63 and U-2 OS cells were treated with different concentrations of cisplatin for 24 hr. (c) MG-63 and U-2 OS cells were treated with cisplatin (20 μM) and collected at the indicated time. (d and e) Quantitative real-time PCR of GFRα1 mRNA expression after cisplatin treatment. Representative images (top) and quantitative analysis (bottom) of GFRα1 mRNA expression. The values are presented as a mean±s.d.m (n=3). ** denotes p<0.05 by t-test. (d) MG-63 and U-2 OS cells were treated with different concentrations of cisplatin for 24 hr. (e) MG-63 and U-2 OS cells were treated with cisplatin (20 μM) and collected at the indicated time.
as §1

[4] = system: GFRα1-deficient MG-63 and U-2 OS cells; assay: WST-1 cell viability of GFRα1-deficient (siRNA) osteosarcoma cells; type: cell-based, human; settings: GFRα1 siRNA 48 h, then agent 24 h
Description: FIG. 6. Cell viability of GFRα1-deficient osteosarcoma cells after treatment of chemotherapeutic agents. MG-63 and U-2 OS cells were transfected with either control siRNA or GFRα1 siRNA for 48 h and then treated with different concentrations of doxorubicin, cisplatin, or methotrexate for 24 h. Cell viability was measured using the WST-1 assay. The values are represented as a mean±s.d.m. (n=3). ** denotes P<0.05 by t-test. (a) MG-63 cells. (b) U-2 OS cells.
Small interfering RNA (siRNA)-based Experiments. Human GFRα1 siRNA, Beclin 1 siRNA, HMGB1 siRNA, AMPK siRNA, c-Src siRNA, NFκB p50 siRNA, APE siRNA and Negative (control) siRNA were purchased from Santa Cruz Biotechnology. Cell lines were transiently transfected with siRNA duplexes using Lipofectamine® RNAiMAX (Life Technologies) according to manufacturer's instructions.
Cell viability assays. WST-1 cell viability assay reagent was purchased from Roche. Equal numbers of cells were seeded in triplicate wells in 48-well plates and maintained in growth medium containing 10% FBS). Cells were cultured with PBS, GDNF (50 ng/mL), GDNF (50 ng/ml)+cisplatin (20 μM), or cisplatin (20 μM) in the presence of serum for 24 hr. Cells were also preincubated with inhibitors (3-MA, PP1, Compound C, Baf and CQ) for 1 hr before stimulating with PBS, GDNF, GDNF+cisplatin, or cisplatin. WST-1 reagent was then treated to the cells at the indicated times and incubated for 2 hr at 37° C. Cell viability was determined by measuring the absorbance after adding WST-1. The spectrophotometric absorbance of the samples was measured using an Ultra Multifunctional Microplate Reader (Tecan, Durham, N.C.) at 450 nm. Experiments were done at least in triplicate using separate cultures.

With `Cc1ccc(-c2nn(C(C)(C)C)c3ncnc(N)c23)cc1` [PP1] the AMPK phosphoryation ([1]; PP1 5 μM) was “decreased” and the LC3-II expression [1] was “decreased”.
`CCN(CC)CCCC(C)Nc1ccnc2cc(Cl)ccc12` (centres unmarked) [CQ, chloroquine] was tested, and the number of colonies [2] was “effectively reduced”, the tumor progression (MG-63/GFRα1 tumors) was “allowed the tumors to survive” and the “tumor volume compared to PBS-treated mice” value (MG-63/GFRα1 tumors) was “decreased”.
`CN(Cc1cnc2nc(N)nc(N)c2n1)c1ccc(C(=O)N[C@@H](CCC(=O)O)C(=O)O)cc1` [methotrexate] was tested, and the “level of GFRα1 expression” value [3] was “no or little effect” and the “cell proliferation of GFRα1-deficient cells compared to control cells” value [4] was “little or no effect”.
For `c1cc(-c2cnn3cc(-c4ccc(OCCN5CCCCC5)cc4)cnc23)ccn1` [compound C], the Src phosphorylation ([1]; Compound C) was “no effect” and the LC3-II expression [1] was “decreased”.
`COc1cccc2c1C(=O)c1c(O)c3c(c(O)c1C2=O)C[C@@](O)(C(=O)CO)C[C@@H]3O[C@H]1C[C@H](N)[C@H](O)[C@H](C)O1` [doxorubicin] was tested, and the “level of GFRα1 expression” value [3] was “no or little effect” and the “cell proliferation of GFRα1-deficient cells compared to control cells” value [4] was “little or no effect”.
